Measured values taken from patent US8501695B2, “Tissue kallikrein for the treatment of diseases associated with amyloid protein” (DiaMedica, Inc., priority 2007, dated 2013).

What was measured:
[1] = tested on: rat mixed cortical cultures (RMCC); assay: Aβ1-42 toxicity in rat mixed cortical cultures, neuronal survival (NeuN cell count); format: cell-based; details: 1 nM, 5 nM, 10 nM, 50 nM and 100 nM; study arm A, B or C
Description: (§1) Whether pre-treatment with tissue kallikrein protects rat mixed cortical cultures against exposure to human amyloid beta peptide (Aβ1-42) was investigated. Cell death was analyzed by LDH-release, an indication of necrosis, and cell viability was also analyzed by neuronal cell count. First (Study Arm A), tissue kallikrein was added to the cells only prior to the Aβ1-42 insult (at −24 h and at −30 min). Whereas in the second part (Study Arm B), tissue kallikrein was added to the cells prior to (−30 min) and also at +24 h after the Aβ1-42 insult. At the +24 h time point, cell culture media were not changed (tissue kallikrein or corresponding amount of vehicle was added to the wells), whereas at −24 h and −30 min time point cell culture media were changed.
(§2) […] Cell Culture. Mixed cortical cultures were prepared from E18 Wistar rat embryos (National Animal Center, Kuopio, Finland). The cortices were dissected out, and the tissue cut to small pieces. The cells were separated by 15-min incubation with DNase and papain. The cells were collected by centrifugation (1500 rpm, 5 min). The tissue was triturated with a pipette and the cells were plated on poly-L-lysine-coated 48-well plates, 300,000 cells/cm^2, in MEM (2 g/L glucose) supplemented with 2 mM glutamine, 0.1 μg/ml gentamicin, 10% heat-inactivated fetal bovine serum (FBS-HI) and 10% heat-inactivated horse serum (HS-HI). After 3-4 h, the media were changed to MEM (2 g/L glucose) supplemented with 2 mM glutamine, 0.1 μg/ml gentamicin, 5% HS-HI. After three days in vitro, media containing MEM (2 g/L glucose) supplemented with glutamine, gentamicin, and 5% of both sera were changed to the cells. On day 6 in vitro, the unwanted cell division was inhibited by adding cytosine arabinoside (10 μM final concentration) for 24 h. The cultures were refed with MEM (2 g/L glucose) supplemented with glutamine, gentamicin, and 5% HS-HI before experiments.
(§3) Aβ1-42 Exposure. Tissue kallikrein (SEQ ID NO:1) was dissolved and further diluted in MEM supplemented with glucose, glutamine, gentamicin, and 5% HS-HI. As a control for total neuronal death, 300 μM N-methyl-D-aspartic acid (NMDA) for 48 h was used, and 10 μM Aβ1-42 for 48 h was used to induce approximately 30-50% cell death. Wells treated with media only served as 0-control. Tissue kallikrein or vehicle was pipetted to the cells −24 h and −30 min before adding 10 μM Aβ1-42 (final concentration). Tissue kallikrein or vehicle was again pipetted to the cells at +24 h after exposure.
Immunocytochemistry for Neuronal Survival. For neuronal counts, the cultures were fixed with 4% paraformaldehyde in 0.01 M PBS for 30 min and washed twice with PBS. The fixed cells were first permeabilized, and non-specific binding blocked by 30 min incubation with blocking buffer containing 1% bovine serum albumin and 0.3% Triton® X-100 in PBS. Anti-neuronal nuclei antibody (anti-NeuN, dilution 1:500, Chemicon, Temecula, Calif.) was used as the primary antibody. The cells were incubated with the primary antibody for 48 h, followed by incubation with a biotinylated secondary antibody (1:200, Vector Labs) for 2 h, and the avidin-biotin-peroxidase complex (ABC-reagent, 1:200, Vector ABC Elite Kit, Vector Labs) for 2 h. The positive cells were visualized using Ni-enhanced DAB as a substrate (DAB Substrate kit, Vector Labs). The NeuN immunopositive neurons were counted using a light microscope. Altogether, 2 fields of each well were counted. The results are shown as percent viable neurons.
Data Analysis. The number of wells per compound concentration used was 6 (n=6). […] Statistical analysis was performed using StatsDirect statistical software. The values were analyzed by one-way ANOVA followed by Dunnet's test (comparison to the vehicle-treated group). Results are presented as mean±standard deviation (SD) and differences are considered to be statistically significant at the P<0.05 level.

[2] = tested on: rat mixed cortical cultures (RMCC); assay: Aβ1-42 toxicity in rat mixed cortical cultures, LDH measurement; format: cell-based; details: for LDH release following Aβ1-42 insult: study arm A, B or C
Description: as §1, §2, §3
LDH Measurement. After 48 h, the culture media of all wells were collected, and possible cell debris was removed by centrifugation (13,000 rpm for 3 min). A 100 μl aliquot was pipetted into a microtiter plate as duplicates, and equal amount of LDH reagent was pipetted to the wells. The absorbance at 340 nm was measured immediately using a 3 min kinetic measurement protocol in Multiskan ELISA reader (Labsystems, Finland). The change in absorbance/min was determined, which was directly proportional to the released LDH. The remaining supernatant (50 μl) was snap-frozen in dry ice for storage.
Data Analysis. The number of wells per compound concentration used was 6 (n=6). Five concentrations of Tissue kallikrein were studied (0.001, 0.01, 0.1, 1, 10 μg/ml) in both study arms. Statistical analysis was performed using StatsDirect statistical software. The values were analyzed by one-way ANOVA followed by Dunnet's test (comparison to the vehicle-treated group). Results are presented as mean±standard deviation (SD) and differences are considered to be statistically significant at the P<0.05 level.

For “lysyl-bradykinin [kallidin, reference compound]”, the “cell counts (survival) following Aβ1-42 insult” value [1] was “did not affect cell counts”, the “LDH release following Aβ1-42 insult” value ([2]; 1 nM, 5 nM, 10 nM, 50 nM and 100 nM) was “did not alter LDH release” and the “LDH release following Aβ1-42 insult” value ([2]; 1 μM and 10 μM) was “did alter LDH release”. The “cell death following Aβ1-42 insult (LDH)” value ([2]; 100 μM, compared to Aβ1-42 insult alone) was “significantly potentated cell death”.
